Data as given in ChEMBL document CHEMBL5331073, “Discovery of novel 7,7-dimethyl-6,7-dihydro-5H-pyrrolo[3,4-d]pyrimidines as ATR inhibitors based on structure-based drug design” (Eur J Med Chem, 2023).
In brackets after ≈: the same amount, converted by molar mass. Activity calls are given as the source filed them. No cut-off for these calls is given here.

Legend:
[1] = target: DNA-dependent protein kinase catalytic subunit (Homo sapiens, UniProt P78527); experiment: Inhibition of DNA-PK (unknown origin) using peptide as substrate preincubated for 10 mins followed by substrate addition by microplate reader analysis
[2] = Protein binding in monkey plasma at 1 uM incubated for 6 hrs by dialysis based LC-MS/MS analysis; assay type: ADME, cell-free, Macaca mulatta; conditions: rhesus monkey, read-out: PPB (converted)
[3] = test system: LoVo; experiment: Inhibition of colony formation of ATM-deficient human LoVo cells at 0.03 to 3 uM incubated for 2 weeks by crystal violet staining based assay; assay type: functional, cell-based; conditions: dose 0.03-3 µM
[4] = MRT(t) in Sprague-Dawley rat at 1 mg/kg, iv and measured upto 24 hrs by LC-MS analysis; assay type: ADME, organism-based; conditions: in vivo
[5] = test system: HCT-116; experiment: Synergistic antiproliferative activity against ATM-proficient human HCT-116 cells assessed as reduction in cell viability incubated for 3 days in presence of oxaliplatin by MTT assay; assay type: functional, cell-based; conditions: HCT-116, 72 h
[6] = target: Cytochrome P450 3A4 (Homo sapiens, UniProt P08684); experiment: Inhibition of CYP3A4 in human liver microsomes using midazolam as substrate preincubated for 5 mins followed by NADPH addition and measured after 120 mins by LC-MS/MS analysis; assay type: ADME, Microsome
[7] = Half life in Sprague-Dawley rat at 5 mg/kg, po and measured upto 24 hrs by LC-MS analysis; assay type: ADME, organism-based; conditions: in vivo
[8] = in vitro; conditions: human, liver microsomes
[9] = test system: HT-29; experiment: Antiproliferative activity against ATM-proficient human HT-29 cells assessed as reduction in cell proliferation incubated for 3 days by MTT assay; assay type: functional, cell-based; conditions: HT-29, 72 h
[10] = Aqueous solubility of compound at pH 7.4 by HPLC-MS/MS analysis; assay type: physicochemical; conditions: aqueous medium
[11] = test system: A549; experiment: Synergistic antiproliferative activity against ATM-proficient human A549 cells assessed as reduction in cell viability incubated for 3 days in presence of cisplatin by MTT assay; assay type: functional, cell-based; conditions: A549, 72 h
[12] = AUCt in Sprague-Dawley rat at 5 mg/kg, po and measured upto 24 hrs by LC-MS analysis; assay type: ADME, organism-based; set-up: time < 24 hrs, dose 5 mg/kg, route po; conditions: in vivo
[13] = test system: SW-620; experiment: Antiproliferative activity against ATM-deficient human SW620 cells assessed as reduction in cell viability incubated for 3 days by MTT assay; assay type: functional, cell-based; conditions: SW-620, 72 h
[14] = test system: A549; experiment: Antiproliferative activity against ATM-proficient human A549 cells assessed as reduction in cell viability incubated for 3 days by MTT assay; assay type: functional, cell-based; conditions: A549, 72 h
[15] = Protein binding in mouse plasma at 1 uM incubated for 6 hrs by dialysis based LC-MS/MS analysis; assay type: ADME, cell-free; conditions: read-out: PPB (converted)
[16] = test system: MDA-MB-231; experiment: Synergistic antiproliferative activity against human MDA-MB-231 cells assessed as reduction in cell viability incubated for 3 days in presence of olaparib by MTT assay; assay type: functional, cell-based; conditions: MDA-MB-231, 72 h
[17] = Protein binding in rat plasma at 1 uM incubated for 6 hrs by dialysis based LC-MS/MS analysis; assay type: ADME, cell-free; conditions: read-out: PPB (converted)
[18] = test system: LoVo; experiment: Antiproliferative activity against ATM-deficient human LoVo cells assessed as reduction in cell proliferation incubated for 3 days by MTT assay; assay type: functional, cell-based; conditions: 72 h
[19] = MRT (0 to infinity) in Sprague-Dawley rat at 5 mg/kg, po and measured upto 24 hrs by LC-MS analysis; assay type: ADME, organism-based; conditions: in vivo
[20] = test system: LoVo; experiment: Antimigratory activity against ATM-deficient human LoVo cells assessed as inhibition of cell migration at 0.03 to 3 uM incubated for 24 hrs by crystal violet staining based Transwell migration assay; assay type: functional; conditions: dose 0.03-3 µM
[21] = test system: MDA-MB-231; experiment: Antiproliferative activity against human MDA-MB-231 cells assessed as reduction in cell viability incubated for 3 days by MTT assay; assay type: functional, cell-based; conditions: MDA-MB-231, 72 h
[22] = test system: MCF7; experiment: Synergistic antiproliferative activity against human MCF7 cells assessed as reduction in cell viability incubated for 3 days in presence of olaparib by MTT assay; assay type: functional, cell-based; conditions: MCF7, 72 h
[23] = MRT(t) in Sprague-Dawley rat at 5 mg/kg, po and measured upto 24 hrs by LC-MS analysis; assay type: ADME, organism-based; conditions: in vivo
[24] = test system: MCF7; experiment: Antiproliferative activity against human MCF7 cells assessed as reduction in cell viability incubated for 3 days by MTT assay; assay type: functional, cell-based; conditions: MCF7, 72 h
[25] = target: Serine/threonine-protein kinase ATR (Homo sapiens, UniProt Q13535); experiment: Inhibition of ATR (unknown origin) using peptide as substrate preincubated for 10 mins followed by substrate addition by microplate reader analysis
[26] = in vitro; conditions: human, liver microsomes; remark: listed apart in the source
[27] = in vitro; conditions: rat, liver microsomes
[28] = target: Serine-protein kinase ATM (Homo sapiens, UniProt Q13315); experiment: Inhibition of ATM (unknown origin) using peptide as substrate preincubated for 10 mins followed by substrate addition by microplate reader analysis
[29] = target: Cytochrome P450 2C19 (Homo sapiens, UniProt P33261); experiment: Inhibition of CYP2C19 in human liver microsomes using […] as substrate preincubated for 5 mins followed by NADPH addition and measured after 120 mins by LC-MS/MS analysis; assay type: ADME, Microsome
[30] = target: T1, Cytochrome P450 1A2 (Homo sapiens, UniProt P05177); experiment: Inhibition of CYP1A2 in human liver microsomes using […] as substrate preincubated for 5 mins followed by NADPH addition and measured after 120 mins by LC-MS/MS analysis; assay type: ADME, Microsome
T1 sequence (P05177 whole entry): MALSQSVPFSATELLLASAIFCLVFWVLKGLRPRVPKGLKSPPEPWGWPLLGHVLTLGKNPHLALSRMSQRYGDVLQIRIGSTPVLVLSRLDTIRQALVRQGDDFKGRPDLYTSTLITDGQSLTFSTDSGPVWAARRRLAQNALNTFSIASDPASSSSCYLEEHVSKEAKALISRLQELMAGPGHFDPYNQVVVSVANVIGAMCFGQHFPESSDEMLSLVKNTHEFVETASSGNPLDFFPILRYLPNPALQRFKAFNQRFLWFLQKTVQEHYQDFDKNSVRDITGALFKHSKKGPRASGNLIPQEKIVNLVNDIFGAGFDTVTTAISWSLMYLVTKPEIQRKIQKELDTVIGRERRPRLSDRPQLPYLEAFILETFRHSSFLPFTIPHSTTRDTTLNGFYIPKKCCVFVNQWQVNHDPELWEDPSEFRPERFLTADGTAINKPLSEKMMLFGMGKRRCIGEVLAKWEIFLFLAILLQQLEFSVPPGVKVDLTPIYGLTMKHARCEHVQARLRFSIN

[31] = test system: A549; experiment: Antiproliferative activity against ATM-proficient human A549 cells assessed as reduction in cell viability incubated for 3 days in presence of AZD-1390 by MTT assay; assay type: functional, cell-based; conditions: A549, 72 h
[32] = Volume of distribution at steady state in Sprague-Dawley rat at 1 mg/kg, iv and measured upto 24 hrs by LC-MS analysis; assay type: ADME, organism-based; conditions: in vivo, read-out: Vdss
[33] = Efflux ratio of apparent permeability across basolateral to apical side over apical to basolateral side in human Caco2 cells; assay type: ADME, cell-based; conditions: Caco-2
[34] = test system: HT-29; experiment: Antiproliferative activity against ATM-proficient human HT-29 cells assessed as reduction in cell viability incubated for 3 days in presence of AZD-1390 by MTT assay; assay type: functional, cell-based; conditions: HT-29, 72 h

Chain of Cytochrome P450 3A4 (P08684 whole entry): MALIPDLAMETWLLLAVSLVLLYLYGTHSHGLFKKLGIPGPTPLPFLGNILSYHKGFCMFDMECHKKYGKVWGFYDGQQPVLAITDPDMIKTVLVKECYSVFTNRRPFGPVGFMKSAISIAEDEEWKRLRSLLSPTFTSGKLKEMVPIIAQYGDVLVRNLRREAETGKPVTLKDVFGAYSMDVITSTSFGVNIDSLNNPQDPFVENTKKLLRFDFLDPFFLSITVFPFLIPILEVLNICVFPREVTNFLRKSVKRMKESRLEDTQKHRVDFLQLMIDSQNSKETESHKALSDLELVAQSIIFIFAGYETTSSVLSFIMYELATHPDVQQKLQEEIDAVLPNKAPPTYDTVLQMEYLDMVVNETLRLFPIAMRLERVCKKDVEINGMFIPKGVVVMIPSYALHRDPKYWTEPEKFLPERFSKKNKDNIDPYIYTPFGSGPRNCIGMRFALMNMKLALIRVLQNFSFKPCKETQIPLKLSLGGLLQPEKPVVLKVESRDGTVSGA
Chain of DNA-dependent protein kinase catalytic subunit (P78527 whole entry): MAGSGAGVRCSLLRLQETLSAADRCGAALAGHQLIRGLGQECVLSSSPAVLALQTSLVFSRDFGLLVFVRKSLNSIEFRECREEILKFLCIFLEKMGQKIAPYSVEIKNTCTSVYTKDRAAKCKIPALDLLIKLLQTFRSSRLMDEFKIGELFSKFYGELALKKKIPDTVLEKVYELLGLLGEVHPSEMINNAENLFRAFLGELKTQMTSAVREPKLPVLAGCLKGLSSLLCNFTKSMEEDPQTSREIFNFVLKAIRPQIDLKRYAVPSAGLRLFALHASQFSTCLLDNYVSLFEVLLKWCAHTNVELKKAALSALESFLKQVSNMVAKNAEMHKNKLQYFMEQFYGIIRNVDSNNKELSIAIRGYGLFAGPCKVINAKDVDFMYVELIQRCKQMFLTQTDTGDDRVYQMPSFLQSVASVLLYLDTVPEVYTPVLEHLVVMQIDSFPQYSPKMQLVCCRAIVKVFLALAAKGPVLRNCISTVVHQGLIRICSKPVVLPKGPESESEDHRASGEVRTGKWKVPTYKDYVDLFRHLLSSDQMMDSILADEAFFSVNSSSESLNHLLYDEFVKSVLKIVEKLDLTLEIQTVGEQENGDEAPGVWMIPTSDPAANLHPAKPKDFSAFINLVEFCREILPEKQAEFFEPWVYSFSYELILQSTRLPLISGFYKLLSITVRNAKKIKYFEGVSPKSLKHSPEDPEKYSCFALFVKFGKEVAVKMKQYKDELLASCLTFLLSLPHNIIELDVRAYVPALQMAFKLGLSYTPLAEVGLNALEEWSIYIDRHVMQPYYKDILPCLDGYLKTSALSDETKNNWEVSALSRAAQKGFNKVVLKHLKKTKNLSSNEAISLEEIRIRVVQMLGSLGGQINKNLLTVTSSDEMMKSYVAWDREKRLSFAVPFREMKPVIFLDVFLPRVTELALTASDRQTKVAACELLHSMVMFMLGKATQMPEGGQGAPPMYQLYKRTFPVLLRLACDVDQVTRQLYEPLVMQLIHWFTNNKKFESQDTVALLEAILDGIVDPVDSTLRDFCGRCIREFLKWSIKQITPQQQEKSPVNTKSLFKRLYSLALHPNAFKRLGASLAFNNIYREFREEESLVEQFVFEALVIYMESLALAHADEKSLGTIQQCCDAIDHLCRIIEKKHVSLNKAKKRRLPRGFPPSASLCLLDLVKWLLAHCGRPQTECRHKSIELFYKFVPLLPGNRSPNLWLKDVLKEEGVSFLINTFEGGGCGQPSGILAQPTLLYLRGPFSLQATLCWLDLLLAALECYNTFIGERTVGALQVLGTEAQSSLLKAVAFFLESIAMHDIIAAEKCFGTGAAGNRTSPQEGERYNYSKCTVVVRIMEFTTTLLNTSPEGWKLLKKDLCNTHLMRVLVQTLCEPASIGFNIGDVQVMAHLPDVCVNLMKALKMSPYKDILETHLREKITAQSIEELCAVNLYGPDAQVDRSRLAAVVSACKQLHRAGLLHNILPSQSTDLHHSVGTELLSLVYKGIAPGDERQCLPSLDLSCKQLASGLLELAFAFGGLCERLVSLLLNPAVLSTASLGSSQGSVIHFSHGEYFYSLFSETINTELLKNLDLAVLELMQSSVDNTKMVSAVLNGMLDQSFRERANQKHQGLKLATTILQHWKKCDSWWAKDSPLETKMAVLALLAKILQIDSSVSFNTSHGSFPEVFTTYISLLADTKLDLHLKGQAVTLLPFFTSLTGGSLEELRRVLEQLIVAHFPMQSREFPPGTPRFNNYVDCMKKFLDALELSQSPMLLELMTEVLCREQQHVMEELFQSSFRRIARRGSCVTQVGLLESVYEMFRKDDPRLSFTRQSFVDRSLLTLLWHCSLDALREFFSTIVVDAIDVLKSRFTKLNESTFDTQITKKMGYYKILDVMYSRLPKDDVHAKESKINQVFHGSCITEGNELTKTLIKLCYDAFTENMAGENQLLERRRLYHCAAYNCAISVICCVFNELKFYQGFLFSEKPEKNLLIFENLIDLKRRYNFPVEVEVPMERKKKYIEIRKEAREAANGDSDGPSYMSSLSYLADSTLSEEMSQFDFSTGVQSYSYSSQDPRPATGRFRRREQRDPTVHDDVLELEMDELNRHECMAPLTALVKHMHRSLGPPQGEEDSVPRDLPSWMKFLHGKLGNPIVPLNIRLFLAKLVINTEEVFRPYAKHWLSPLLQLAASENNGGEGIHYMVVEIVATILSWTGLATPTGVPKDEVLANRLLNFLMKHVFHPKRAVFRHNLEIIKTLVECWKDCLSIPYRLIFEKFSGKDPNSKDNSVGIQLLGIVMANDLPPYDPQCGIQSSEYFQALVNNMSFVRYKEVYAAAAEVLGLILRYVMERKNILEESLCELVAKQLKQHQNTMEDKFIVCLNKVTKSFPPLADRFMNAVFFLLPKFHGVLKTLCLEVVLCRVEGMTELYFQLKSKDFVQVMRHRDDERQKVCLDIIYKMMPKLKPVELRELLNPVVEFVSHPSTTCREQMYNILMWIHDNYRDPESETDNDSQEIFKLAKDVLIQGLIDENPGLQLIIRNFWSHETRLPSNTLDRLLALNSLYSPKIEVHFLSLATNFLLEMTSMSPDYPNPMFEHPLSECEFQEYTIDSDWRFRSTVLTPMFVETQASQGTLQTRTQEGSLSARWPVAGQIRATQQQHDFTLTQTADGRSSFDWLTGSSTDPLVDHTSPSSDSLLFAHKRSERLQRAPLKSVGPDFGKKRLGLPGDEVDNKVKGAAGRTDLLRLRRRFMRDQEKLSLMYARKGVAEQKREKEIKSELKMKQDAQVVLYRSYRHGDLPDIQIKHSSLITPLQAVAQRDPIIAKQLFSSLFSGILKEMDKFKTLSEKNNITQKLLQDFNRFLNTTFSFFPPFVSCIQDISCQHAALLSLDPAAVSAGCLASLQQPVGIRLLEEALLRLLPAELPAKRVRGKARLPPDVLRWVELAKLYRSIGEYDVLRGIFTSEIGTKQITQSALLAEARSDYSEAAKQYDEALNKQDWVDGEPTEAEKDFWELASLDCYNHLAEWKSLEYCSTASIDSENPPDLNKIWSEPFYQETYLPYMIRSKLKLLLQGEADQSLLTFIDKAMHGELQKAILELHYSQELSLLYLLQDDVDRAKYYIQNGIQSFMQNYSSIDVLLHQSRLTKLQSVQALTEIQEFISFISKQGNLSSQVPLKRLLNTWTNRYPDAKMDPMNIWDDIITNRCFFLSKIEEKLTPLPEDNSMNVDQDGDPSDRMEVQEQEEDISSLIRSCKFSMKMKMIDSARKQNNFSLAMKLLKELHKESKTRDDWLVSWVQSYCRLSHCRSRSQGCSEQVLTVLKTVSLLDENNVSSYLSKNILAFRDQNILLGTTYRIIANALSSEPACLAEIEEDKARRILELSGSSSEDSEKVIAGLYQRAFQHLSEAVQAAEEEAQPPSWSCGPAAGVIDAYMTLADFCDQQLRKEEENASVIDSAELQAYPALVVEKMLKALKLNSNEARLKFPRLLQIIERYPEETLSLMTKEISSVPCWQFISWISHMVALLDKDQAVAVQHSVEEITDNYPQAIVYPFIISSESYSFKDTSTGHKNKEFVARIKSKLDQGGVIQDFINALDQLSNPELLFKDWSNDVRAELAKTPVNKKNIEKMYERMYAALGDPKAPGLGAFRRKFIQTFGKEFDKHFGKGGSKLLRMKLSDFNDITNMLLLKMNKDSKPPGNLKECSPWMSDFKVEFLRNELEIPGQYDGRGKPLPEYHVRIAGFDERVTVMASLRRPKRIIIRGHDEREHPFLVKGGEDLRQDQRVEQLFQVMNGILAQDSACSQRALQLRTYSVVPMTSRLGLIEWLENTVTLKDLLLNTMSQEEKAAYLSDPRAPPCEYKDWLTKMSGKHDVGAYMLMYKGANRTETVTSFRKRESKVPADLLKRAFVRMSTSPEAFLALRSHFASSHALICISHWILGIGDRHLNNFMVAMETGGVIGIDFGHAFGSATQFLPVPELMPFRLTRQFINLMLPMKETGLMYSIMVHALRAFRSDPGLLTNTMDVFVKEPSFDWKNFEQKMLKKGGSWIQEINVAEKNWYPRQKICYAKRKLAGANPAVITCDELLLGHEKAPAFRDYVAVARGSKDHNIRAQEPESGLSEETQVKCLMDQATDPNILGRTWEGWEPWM
Chain of Cytochrome P450 2C19 (P33261 whole entry): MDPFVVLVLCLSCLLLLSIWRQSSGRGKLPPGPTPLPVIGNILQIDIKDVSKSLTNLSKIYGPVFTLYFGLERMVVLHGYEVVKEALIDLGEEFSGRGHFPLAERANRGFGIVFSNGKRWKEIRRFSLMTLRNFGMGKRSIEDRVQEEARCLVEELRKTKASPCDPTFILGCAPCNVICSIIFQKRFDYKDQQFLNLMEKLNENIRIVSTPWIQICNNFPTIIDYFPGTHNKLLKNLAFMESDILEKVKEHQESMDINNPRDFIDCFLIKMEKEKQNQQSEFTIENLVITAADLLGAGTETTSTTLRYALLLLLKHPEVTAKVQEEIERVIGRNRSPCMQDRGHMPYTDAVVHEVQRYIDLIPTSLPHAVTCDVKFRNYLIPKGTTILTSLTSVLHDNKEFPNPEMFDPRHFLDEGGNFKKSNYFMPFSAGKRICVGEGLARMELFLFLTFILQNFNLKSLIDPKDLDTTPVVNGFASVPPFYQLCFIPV

**Q.** Which IC50 [1] does the source give for `C[C@@H]1COCCN1c1nc(-c2cccc3[nH]ccc23)nc2c1CN(C(=O)c1cccc(S(C)(=O)=O)c1)C2(C)C` here?
**A.** 662 nM

**Q.** And the fraction unbound at 6 h, 1 µM [2]?
**A.** 0.079

**Q.** And the inhibition [3]?
**A.** Dose-Dependent Effect

**Q.** And the MRT last at 24 h [4]?
**A.** 1.36 h

**Q.** What about the IC50 [5] of the same compound?
**A.** 13 nM

**Q.** What about the IC50 [6] of the same compound?
**A.** 1000 nM

**Q.** And the half-life [7]?
**A.** 2.66 h

**Q.** And the half-life at 1 h, 1 µM [8]?
**A.** 0.0567 h

**Q.** What about the IC50 [9] of the same compound?
**A.** 197 nM

**Q.** What about the solubility [10] of the same compound?
**A.** 15.4 µM (≈ 8.4 µg/mL)

**Q.** And the IC50 [11]?
**A.** 280 nM

**Q.** What about the AUC(0-t) at 24 h [12] of the same compound?
**A.** 1620 ng·h/mL

**Q.** What about the IC50 [13] of the same compound?
**A.** 95 nM

**Q.** What about the IC50 [14] of the same compound?
**A.** 302 nM

**Q.** And the fraction unbound at 6 h, 1 µM [15]?
**A.** 0.024

**Q.** What about the IC50 [16] of the same compound?
**A.** 435 nM

**Q.** What about the fraction unbound at 6 h, 1 µM [17] of the same compound?
**A.** 0.039

**Q.** And the IC50 [18]?
**A.** 40 nM

**Q.** What about the MRT inf [19] of the same compound?
**A.** 4.26 h

**Q.** And the inhibition [20]?
**A.** Active

**Q.** And the IC50 [21]?
**A.** 1070 nM

**Q.** What about the IC50 [22] of the same compound?
**A.** 328 nM

**Q.** What about the MRT last at 24 h [23] of the same compound?
**A.** 3.6 h

**Q.** What about the IC50 [24] of the same compound?
**A.** 873 nM

**Q.** And the IC50 [25]?
**A.** 3 nM

**Q.** And the CLint scaled at 1 h, 1 µM [26]?
**A.** 385 mL/min/kg

**Q.** And the CLint scaled at 1 h, 1 µM [27]?
**A.** 119 mL/min/kg

**Q.** And the IC50 [28]?
**A.** 1000 nM

**Q.** What about the IC50 [29] of the same compound?
**A.** 1000 nM

**Q.** And the IC50 [30]?
**A.** > 10000 nM

**Q.** What about the IC50 [31] of the same compound?
**A.** 13 nM

**Q.** And the Vd [32]?
**A.** 1.24 L/kg

**Q.** And the efflux ratio [33]?
**A.** 2

**Q.** And the IC50 [34]?
**A.** 19 nM

**Q.** Which IC50 [1] does the source give for `C[C@@H]1COCCN1c1nc(-c2cccc3[nH]ccc23)nc2c1CN(C(=O)c1ccc3c(c1)OCO3)C2(C)C` here?
**A.** 1000 nM

**Q.** And the fraction unbound at 6 h, 1 µM [2]?
**A.** 0.011

**Q.** What about the inhibition [3] of the same compound?
**A.** Dose-Dependent Effect

**Q.** And the MRT last at 24 h [4]?
**A.** 1.99 h

**Q.** What about the IC50 [5] of the same compound?
**A.** 67 nM

**Q.** And the IC50 [6]?
**A.** 1000 nM

**Q.** And the half-life [7]?
**A.** 3.81 h

**Q.** And the half-life at 1 h, 1 µM [8]?
**A.** 0.435 h

**Q.** What about the IC50 [9] of the same compound?
**A.** 421 nM

**Q.** What about the solubility [10] of the same compound?
**A.** 0.34 µM (≈ 0.174 µg/mL)

**Q.** And the IC50 [11]?
**A.** 439 nM

**Q.** What about the AUC(0-t) at 24 h [12] of the same compound?
**A.** 5700 ng·h/mL

**Q.** What about the IC50 [13] of the same compound?
**A.** 145 nM

**Q.** And the IC50 [14]?
**A.** 741 nM

**Q.** And the fraction unbound at 6 h, 1 µM [15]?
**A.** 0.005

**Q.** And the IC50 [16]?
**A.** 279 nM

**Q.** And the fraction unbound at 6 h, 1 µM [17]?
**A.** 0.001

**Q.** And the IC50 [18]?
**A.** 78 nM

**Q.** What about the MRT inf [19] of the same compound?
**A.** 4.21 h

**Q.** And the inhibition [20]?
**A.** Active

**Q.** And the IC50 [21]?
**A.** 2570 nM

**Q.** What about the IC50 [22] of the same compound?
**A.** 347 nM

**Q.** What about the MRT last at 24 h [23] of the same compound?
**A.** 4.36 h

**Q.** What about the IC50 [24] of the same compound?
**A.** 730 nM

**Q.** What about the IC50 [25] of the same compound?
**A.** 5 nM

**Q.** And the CLint scaled at 1 h, 1 µM [26]?
**A.** 50.3 mL/min/kg

**Q.** What about the CLint scaled at 1 h, 1 µM [27] of the same compound?
**A.** 63.6 mL/min/kg

**Q.** And the IC50 [28]?
**A.** 516 nM

**Q.** What about the IC50 [29] of the same compound?
**A.** 1000 nM

**Q.** What about the IC50 [30] of the same compound?
**A.** > 10000 nM

**Q.** What about the IC50 [31] of the same compound?
**A.** 127 nM

**Q.** What about the Vd [32] of the same compound?
**A.** 0.785 L/kg

**Q.** What about the efflux ratio [33] of the same compound?
**A.** 1.2

**Q.** What about the IC50 [34] of the same compound?
**A.** 45 nM
